# “Also recorded” adds a separate entry of the source.
# Key:
# [1] = tested on: nervomuscular conduction, anterior tibial muscle; experiment: Neostigmin antagonism of nervomuscular block in cats; type: in vivo
# Protocol: (§1) Cats were narcotized (with chloralose, 50 mg per kg body weight, and urethane, 500 mg/kg, intraperitoneally) or decerebrated at the quadrigeminal bodies level. The lungs were ventilated artificially whenever necessary. Contractions of the anterior tibial muscle were recorded in isotonic concitions in response to electric stimulation of the peripheral part of n. peroneus with supramaximum pulses of 0.1 msec at a frequency of 0.1-100 Hz.
# For example, even with a 5-fold dose of tercuronium, muscle contractility was restored already in 2 to 5 minutes following a single injection of neostigmin in a dose of 0.1 mg/kg, and in 15-20 minutes the recovery of the contactile function was complete.
# In the case of pancuronium and α-tubocurarin, the restoration within these short periods of time could only be attained with 2-3 fold doses of these muscle relaxants. If the dose of pancuronium was increased 4 to 5 times, weak contractions of the muscle were observed not sooner than in 9 to 10 minutes and the contraction was, restored completely only 30 minutes after the injection of neostigmin (six experiments). The restoration of muscle contractility is delayed even longer in the case of α-tubocurarin.
# [2] = tested on: albino mice; experiment: Inhibition of turning from the lateral position in mice; type: in vivo
# Source text: In experiments on albino mice, the dose of Tercuronium injected into the tail vein, that inhibited the symptom of turning from the lateral position in 50 percent of mice (ED50) was 0.06 mcM/kg (18 experiments); and 50 percent of mice perished from paralysis of the respiratory muscles (LD50) following an injection of 0.09 mcM/kg of Tercuronium.
# [3] = tested on: nervomuscular conduction, vegetative ganglia, circulation; experiment: Overall conclusions from animal experiments; type: in vivo, animals
# Source text: The results of the pharmacological studies of the proposed muscle relaxant Tercuronium, as compared with the known muscle relaxants, enable us to make the following conclusions.
# [4] = tested on: patients; experiment: Surgical operations, second series (intubation and maintenance); type: in vivo, patients (human)
# Protocol: We tried Tercuronium as a muscle relaxant in surgical operations on the abdominal and thoracic organs in 150 patients. The operations were carried out in conditions of intubation narcosis and artificial lung ventilation. Ether, fluorothane, nitrous oxide and barbiturates were used as anesthetics.
# In the second series of observations (30 operations), Tercuronium was used for both maintaining muscle relaxation and intubation of the trachea. For this purpose, Tercuronium was used intravenously in a dose of 0.25 to 0.3 mg/kg. […] The relaxation continued for about an hour. For a longer relaxation of muscles, a repeated injection of Tercuronium in a dose of 0.05 to 0.08 mg/kg was required.
# [5] = tested on: phrenico-diaphragm preparations; experiment: Block of nervomuscular conduction in isolated phrenico-diaphragm preparations; parameters: species or system rats; details: rat, isolated by the Bulbring method
# Source text: In experiments on phrenico-diaphragm preparations of rats, isolated by the Bulbring method, the block of the nervomuscular conduction developed under the action of Tercuronium in a concentration of 2 × 10^-6 m/litre.
# [6] = Effect on sympathetic ganglia, third eyelid contraction in cats; type: in vivo; details: cat, in vivo, iv, read-out: ganglioblocking dose as multiple of myoparalytic dose
# Protocol: (§2) Experiments were carried out on narcotized cats. A peripheral part of the sympathetic column on the neck was stimulated with electric pulses at 5 Hz. The duration of the stimulus was 1 msec, the amplitude 5 V. The contractions of the third eyelid (nictiating membrane) and the arterial (carotid) pressure were recorded with a mercury pressure gauge. We determined the intravenous dose of Tercuronium, α-tubocurarin and pancuronium that decreased the height of contraction of the third eyelid by 50 to 60 percent in conditions of prolonged stimulation of the sympathetic column.
# [7] = tested on: sympathetic ganglia; experiment: as above; type: in vivo
# Protocol: as §2
# [8] = Lethality by paralysis of respiratory muscles in rabbits; details: rabbit, in vivo
# Source text: In another series of experiments, we determined the intravenous dose of the muscle relaxants that caused death of 50% of the animals due to paralysis of the respiratory muscles -- lethal dose 50% (LD50).
# [9] = tested on: pigeons; experiment: Paralysis in pigeons; type: in vivo
# [10] = tested on: respiration; experiment: Inhibition of respiration in narcotized and decerebrated cats (and rabbits); type: in vivo
# Source text: This developed simultaneously with the block of the nervomuscular conduction in the anterior tibial muscle. […] The same result was obtained in experiments on rabbits. The ratio of LD50 in experiments on rabbits and mice, as specified above, also provides data on the that Tercuronium produces on respiration.
# [11] = tested on: arterial pressure; experiment: Effect on arterial pressure in cats and rabbits; type: in vivo
# Protocol: (§3) Experiments were carried out on narcotized cats and rabbits (50 mg/kg of chloralose and 500 mg/kg urethane, intraperitoneally) and also on cats decerebrated at the quadrigeminal level. The blood pressure in the carotid artery was recorded with a mercury pressure gauge. The preparations were injected intravenously.
# (§4) When Tercuronium was given in a quantity ten times exceeding the myoparalytic dose (0.8 mcM/kg) an insignificant and transient reduction (10 to 20 mm Hg) of the blood pressure was observed. The animals (7 cats and 5 rabbits) tolerated injections of very large doses of Tercuronium, viz., 10-20 mcM/kg, which is 200 times higher than the myoparalytic dose. […] In all experiments, in 1 to 2 hours, the arterial pressure restored completely or was close to the initial level.
# [12] = Effect on arterial pressure in cats and rabbits; type: in vivo; details: rabbit, in vivo, iv, artificial ventilation
# Protocol: as §3, §4
# [13] = tested on: postsynaptic membrane of skeletal muscle; experiment: Site of action: close intra-arterial acetylcholine and direct stimulation; type: in vivo; details: cats
# Protocol: as §1
# The blocking effect of Tercuronium is due to its action on the postsynaptic membrane of skeletal muscle.
smiles,measurement,setting,value
"CC[N+](CC)(CC)c1ccc(-c2ccc(-c3ccc([N+](CC)(CC)CC)cc3)cc2)cc1 [Tercuronium, p,p""-bis-triethylammonio-n-terphenyl dibenzenesulphonate]",time to complete recovery of contractile function after neostigmin,"[1]; 5-fold dose, neostigmin 0.1 mg/kg",15 to 20 min
same,strength of neostigmin antagonism compared with other relaxants,[1]; cats,stronger that toward α-tubocurarin or pancuronium; also recorded: stronger with Tercuronium than with pancuronium or α-tubocurarin
same,number of myoparalytic doses whose blocking effect is completely removed by neostigmin,"[1]; neostigmin 0.1 mg/kg intravenous, within five minutes",five
same,restoration from block by neostigmin,[1]; neostigmin 0.05 to 0.1 mg/kg intravenous,fully and immediately restored
same,ED50,"[2]; Mus musculus, iv",0.06 µmol/kg
same,myoparalytic action compared with pancuronium and α-tubocurarin,[2]; mice,several times lower than that of pancuronium and several times higher than that of α-tubocurarin
same,blood pressure at ten-fold dose,"[3]; cats, ten-fold dose",only slightly reduced
same,nervomuscular blocking activity compared with pancuronium,[3]; experiments on animals,somewhat lower than of pancuronium
same,"histamine, vegetative ganglia, blood pressure and heart frequency",[3]; myoparalytic dose,"does not produce histamine, does not block vegetative ganglia or affect the blood pressure and frequency of heart contractions"
same,frequency of heart contraction,[3]; ten times the myoparalytic dose,does not affect the frequency of heart contraction
same,cardiovascular disorders or other complications,[4]; 0.25 to 0.3 mg/kg,not accompanied by cardiovacular disorders or any other complications
same,duration of relaxation,[4]; 0.25 to 0.3 mg/kg intravenous,about an hour
same,intubation conditions,[4]; 0.25 to 0.3 mg/kg intravenous,unobstructed intubation
same,postoperative complications,[4]; postoperative period,"no cases of muscle atomia, respiratory insufficiency, or recurarization"
same,efficiency of proserpin as deblocking agent,[4]; proserpin,complete
same,concentration blocking nervomuscular conduction,[5],2 × 10^-6 m/litre
same,selectivity ratio,[6],10 to 15
same,arterial pressure at ganglioblocking dose,[7],the arterial pressure dropped as well
same,LD50,[8]; intravenous,0.03 µmol/kg
same,selectivity ratio,[8]; read-out: LD50 to HDD ratio,1.4
same,effect in pigeons,[9]; 0.2 mcM/kg intravenous,weak paralysis developed; also recorded: shows the nondepolarizing effect as well
same,ED50,"[9]; Columbidae, pigeons, intravenous",0.2 µmol/kg
same,bronchospasm,"[10]; 200-1000-fold dose, artificial ventilation, cats, same in rabbits",bronchospasm did not develop
same,"inhibition of respiration by blocking doses, comparison",[10]; from LD50 to ED50 ratio,equally inhibit respiration
same,effect on respiration,[10]; narcotized and decerebrated cats,respiration was inhibited and stopped by a curare-like paralysis of the diaphragm; also recorded: respiration was restored simultaneously with the restoration of the muscle contraction
same,blood pressure at very large doses,[11]; 10-20 mcM/kg,quickly and sharply dropped and then slowly normalized
same,arterial pressure on doses that inhibit respiration,[11]; active ventilation of the lungs,asphyxial rise in the arterial pressure
same,effect on arterial pressure of myoparalytic (complete block) dose,[11]; artificial ventilation,the arterial pressure was not affected
same,reduction of blood pressure,[11]; ten times the myoparalytic dose (0.8 mcM/kg),10-20 mm Hg
same,"effect on arterial pressure, comparison",[11]; versus the other two muscle relaxants,mildest effect on the arterial pressure
same,selectivity ratio,"[12]; 10-20 mcM/kg, read-out: tolerated dose as multiple of myoparalytic dose",200
same,MTD,"[12]; cats and rabbits, read-out: tolerated dose",10 to 20 µmol/kg
same,site of blocking action,[13],"contraction of muscles induced by acetylcholine injected by the close intra-arterial method, was inhibited simultaneously with the block of the nervomuscular condution; also recorded: it contracted in response to direct stimuli"

# Reference: US4060652A (priority 1976, dated 1977)
